pIC50: −log10 of the molar value.

Experimental findings from ChEMBL document CHEMBL1156661, “Myrtucommulones F-I, phloroglucinols with thyrotropin-releasing hormone receptor-2 binding affinity from the seeds of Corymbia scabrida” (J Nat Prod, 2008) are described below.

This test can be described thus: Displacement of [H3]3-methylhistidylTRH from rat recombinant TRH2 receptor expressed in […] cells. The format is cell-based.
Consider `CC(C)C(=O)c1c(O)c([C@H](C2=C(O)C(C)(C)C(=O)C(C)(C)C2=O)C(C)C)c(O)c([C@H](C2=C(O)C(C)(C)C(=O)C(C)(C)C2=O)C(C)C)c1O` [MYRTUCOMMULONE A], for which the pIC50 (as a rule, −log10 of the IC50, conventionally taken in molar units) is 4.41.

In the case of `CC(C)C(=O)c1c(O)c2c(c3c1O[C@@]1(O)[C@@H](C(O)C(C)(C)C(=O)C1(C)C)[C@@H]3C(C)C)OC1=C(C(=O)C(C)(C)C(=O)C1(C)C)[C@@H]2C(C)C` (stereo partly specified) [MYRTUCOMMULONE D], the pIC50 was 4.96.

Turning to `CCCCCC(=O)c1c(O)c([C@H](C2=C(O)C(C)(C)C(=O)C(C)(C)C2=O)C(C)C)c(O)c([C@H](C2=C(O)C(C)(C)C(=O)C(C)(C)C2=O)C(C)C)c1O` [MYRTUCOMMULONE F], the pIC50 was 4.80.

For the compound `CCCCCC(=O)c1c(O)c2c(c3c1O[C@@]1(O)[C@@H](C(O)C(C)(C)C(=O)C1(C)C)[C@@H]3C(C)C)OC1=C(C(=O)C(C)(C)C(=O)C1(C)C)[C@@H]2C(C)C` (stereo partly specified) [MYRTUCOMMULONE G], the pIC50 is 4.62.

As for `CCCCCC(=O)c1c(O)c([C@@H](CC(C)C)C2=C(O)C(C)(C)C(=O)C(C)(C)C2=O)c(O)c([C@H](C2=C(O)C(C)(C)C(=O)C(C)(C)C2=O)C(C)C)c1O` [MYRTUCOMMULONE H], the pIC50 was 4.51.

Regarding `CCCCCC(=O)c1c(O)c2c(c3c1O[C@@]1(O)[C@@H](C(O)C(C)(C)C(=O)C1(C)C)[C@@H]3C(C)C)OC1=C(C(=O)C(C)(C)C(=O)C1(C)C)[C@@H]2CC(C)C` (stereo partly specified) [MYRTUCOMMULONE I], the pIC50 is 4.80.
